Data reported in patent US10208074B2, “Pyrazole compounds and method for making and using the compounds” (Rigel Pharmaceuticals, Inc., priority 2015, dated 2019).
Counter-ions that a name gives are not always drawn. Like-named read-outs stand apart in the source and are kept apart here.

Columns and labels:
IL-23 (p19/p40) = assay: IL23-p19 ELISA, Dendritic, LPS (compound screening using DC cells); type: cell-based, Human
In short: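 IL-23 in supernatants quantified by sandwich ELISA (anti-p19 capture, biotinylated anti-p40 detection, chemiluminescent readout) after 18 h LPS (1 μg/ml) stimulation. Cells were monocyte-derived DCs (GM-CSF/IL-4, 7 d), IFNγ-primed 24 h and given compound 1 h before LPS; viability by CellTiter Glo.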

IL-23p19 = assay: LPS induced IL23p19 in THP-1 cells (with IFNγ primed) assay; type: cell-based, Human
In short: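 Readout is secreted IL-23p19, quantified by chemiluminescent sandwich ELISA after 18 h LPS (1 ug/mL) stimulation of THP-1 cells that had been IFNγ-primed (50 ng/mL, ~18 h) and given compound 1 h beforehand at 37 °C. EC50 derived by curve fit; cytotoxicity tracked with Cell Titer Glo.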

[1] = Homo sapiens, 18 h, PBMC-derived DC cells, IFNγ primed, LPS 1 μg/ml, 18 hours, 10 pt, read-out: IL23-p19 ELISA, Dendritic, LPS, 10 pt, EC50
[2] = Homo sapiens, THP-1, 18 h, THP-1 cells, IFNγ primed, LPS 1 ug/mL, 18 hours, 10 pt, read-out: IL23-p19 ELISA, THP1-IFNy, LPS, 10 pt EC50
[3] = PBMC-derived DC cells, IFNγ primed, LPS 1 μg/ml, 18 hours, 10 pt, read-out: IL23-p19 ELISA, Dendritic, LPS, 10 pt, EC50
[4] = THP-1 cells, IFNγ primed, LPS 1 ug/mL, 18 hours, 10 pt, read-out: IL23-p19 ELISA, THP1-IFNy, LPS, 10 pt EC50

Compound	EC50 (IL-23 (p19/p40); [1]) [µM]	EC50 (IL-23p19; [2]) [µM]	further results
COc1ccc(COCC(C)(C)OC(=O)n2cc(-c3nc(C(=O)Nc4cn(C)nc4-c4ccccn4)cs3)cn2)cc1 [II-6, 1-((4-methoxybenzyl)oxy)-2-methylpropan-2-yl 4-(4-((1-methyl-3-(pyridin-2-yl)-1H-pyrazol-4-yl)carbamoyl)thiazol-2-yl)-1H-pyrazole-1-carboxylate]	6.89	0.0874	
CCO[C@H]1C[C@@H](n2cc(NC(=O)c3csc(-c4cnn(C)c4)n3)c(-c3ccccn3)n2)C1 [II-13, N-(1-((1,3-cis)-3-ethoxycyclobutyl)-3-(pyridin-2-yl)-1H-pyrazol-4-yl)-2-(1-methyl-1H-pyrazol-4-yl)thiazole-4-carboxamide]	10.4	4.8	
CCO[C@H]1C[C@@H](n2cc(NC(=O)c3csc(-c4cnn(COP(=O)(O)O)c4)n3)c(-c3ccccn3)n2)C1 [II-16, (4-(4-((1-((1,3-cis)-3-ethoxycyclobutyl)-3-(pyridin-2-yl)-1H-pyrazol-4-yl)carbamoyl)thiazol-2-yl)-1H-pyrazol-1-yl)methyl phosphate bis-sodium salt]			EC50 (IL-23 (p19/p40); PBMC-derived DC cells, IFNγ primed, LPS 1 μg/ml, 18 hours, 10 pt, phosphate bis-sodium salt, read-out: IL23-p19 ELISA, Dendritic, LPS, 10 pt, EC50): 0.525 µM; EC50 (IL-23p19; THP-1 cells, IFNγ primed, LPS 1 ug/mL, 18 hours, 10 pt, phosphate bis-sodium salt, read-out: IL23-p19 ELISA, THP1-IFNy, LPS, 10 pt EC50): 0.121 µM
CCOCCn1cc(NC(=O)c2csc(-c3cn[nH]c3)n2)c(-c2ccccn2)n1 [II-18, N-(1-(2-ethoxyethyl)-3-(pyridin-2-yl)-1H-pyrazol-4-yl)-2-(1H-pyrazol-4-yl)thiazole-4-carboxamide, formic acid salt]			EC50 (IL-23 (p19/p40); PBMC-derived DC cells, IFNγ primed, LPS 1 μg/ml, 18 hours, 10 pt, formic acid salt, read-out: IL23-p19 ELISA, Dendritic, LPS, 10 pt, EC50): 0.0314 µM; EC50 (IL-23p19; THP-1 cells, IFNγ primed, LPS 1 ug/mL, 18 hours, 10 pt, formic acid salt, read-out: IL23-p19 ELISA, THP1-IFNy, LPS, 10 pt EC50): 0.301 µM
CCOCCn1cc(NC(=O)c2csc(-c3cn[nH]c3C(F)(F)F)n2)c(-c2ccccn2)n1 [II-19, N-(1-(2-ethoxyethyl)-3-(pyridin-2-yl)-1H-pyrazol-4-yl)-2-(5-(trifluoromethyl)-1H-pyrazol-4-yl)thiazole-4-carboxamide, formic acid salt]	3.51	4.01	
CCOCCn1cc(NC(=O)c2csc(-c3c[nH]nc3C)n2)c(-c2ccccn2)n1 [II-21, N-(1-(2-ethoxyethyl)-3-(pyridin-2-yl)-1H-pyrazol-4-yl)-2-(3-methyl-1H-pyrazol-4-yl)thiazole-4-carboxamide, formic acid salt]	0.569	0.315	
CCOCCn1cc(NC(=O)c2csc(-c3c(C)n[nH]c3C)n2)c(-c2ccccn2)n1 [II-23, 2-(3,5-dimethyl-1H-pyrazol-4-yl)-N-(1-(2-ethoxyethyl)-3-(pyridin-2-yl)-1H-pyrazol-4-yl)thiazole-4-carboxamide, formic acid salt]	16.3	4.76	
CCOCCn1cc(NC(=O)c2csc(-c3cn[nH]c3)n2)c(-c2ccccn2)n1 [II-25, N-(1-(2-ethoxyethyl)-3-(pyridin-2-yl)-1H-pyrazol-4-yl)-2-(1H-pyrazol-4-yl)thiazole-4-carboxamide]			EC50 (IL-23 (p19/p40); [3]): 0.17 µM; EC50 (IL-23p19; [4]): 0.146 µM
Cc1n[nH]cc1-c1nc(C(=O)Nc2cn(C)nc2-c2ccccn2)cs1 [II-27, 2-(3-methyl-1H-pyrazol-4-yl)-N-(1-methyl-3-(pyridin-2-yl)-1H-pyrazol-4-yl)thiazole-4-carboxamide]	0.331	0.0741	
COCCn1cc(NC(=O)c2csc(-c3c[nH]nc3C)n2)c(-c2ccccn2)n1 [II-29, N-(1-(2-methoxyethyl)-3-(pyridin-2-yl)-1H-pyrazol-4-yl)-2-(3-methyl-1H-pyrazol-4-yl)thiazole-4-carboxamide, formic acid salt]	0.248	0.135	
CCOCCn1cc(NC(=O)c2csc(-c3c[nH]nc3C)n2)c(-c2ccccn2)n1 [II-31, N-(1-(2-ethoxyethyl)-3-(pyridin-2-yl)-1H-pyrazol-4-yl)-2-(3-methyl-1H-pyrazol-4-yl)thiazole-4-carboxamide]			EC50 (IL-23 (p19/p40); [3]): 0.799 µM; EC50 (IL-23p19; [4]): 0.17 µM
Cn1cc(NC(=O)c2csc(-c3cnn(COP(=O)(O)O)c3)n2)c(-c2ccccn2)n1 [II-35, (4-(4-((1-methyl-3-(pyridin-2-yl)-1H-pyrazol-4-yl)carbamoyl)thiazol-2-yl)-1H-pyrazol-1-yl)methyl dihydrogen phosphate]	0.292	0.206	
Cn1cc(NC(=O)c2csc(-c3cnn(COP(=O)(O)O)c3)n2)c(-c2ccccn2)n1 [II-36, Sodium (4-(4-((1-methyl-3-(pyridin-2-yl)-1H-pyrazol-4-yl)carbamoyl)thiazol-2-yl)-1H-pyrazol-1-yl)methyl phosphate]			EC50 (IL-23 (p19/p40); PBMC-derived DC cells, IFNγ primed, LPS 1 μg/ml, 18 hours, 10 pt, phosphate, read-out: IL23-p19 ELISA, Dendritic, LPS, 10 pt, EC50): 0.241 µM; EC50 (IL-23p19; THP-1 cells, IFNγ primed, LPS 1 ug/mL, 18 hours, 10 pt, phosphate, read-out: IL23-p19 ELISA, THP1-IFNy, LPS, 10 pt EC50): 0.165 µM
COCCOCCn1cc(NC(=O)c2csc(-c3cn[nH]c3)n2)c(-c2ccccn2)n1 [II-37, N-(1-(2-(2-methoxyethoxy)ethyl)-3-(pyridin-2-yl)-1H-pyrazol-4-yl)-2-(1H-pyrazol-4-yl)thiazole-4-carboxamide]	0.193	0.129	
Cn1cc(NC(=O)c2csc(-c3cnn(COP(=O)(O)O)c3)n2)c(-c2ccccn2)n1 [II-38, Potassium (4-(4-((1-methyl-3-(pyridin-2-yl)-1H-pyrazol-4-yl)carbamoyl)thiazol-2-yl)-1H-pyrazol-1-yl)methyl phosphate]			EC50 (IL-23 (p19/p40); Homo sapiens, 18 h, read-out: IL23-p19 ELISA, Dendritic, LPS, 10 pt, EC50 (μM)): 0.771 µM; EC50 (IL-23p19; Homo sapiens, THP-1, 18 h, read-out: IL23-p19 ELISA, THP1-IFNy, LPS, 10 pt EC50 (μM)): 0.505 µM

Continued by falling EC50 (IL-23 (p19/p40); [1]), values first:

EC50 (IL-23 (p19/p40); [1]) [µM]	EC50 (IL-23p19; [2]) [µM]	Compound	further results
0.191	0.361	O=C(Nc1c[nH]nc1-c1ccccn1)c1csc(-c2cn[nH]c2)n1 [II-32, 2-(1H-pyrazol-4-yl)-N-(3-(pyridin-2-yl)-1H-pyrazol-4-yl)thiazole-4-carboxamide formic acid salt]	
0.157	0.0902	Cn1cc(NC(=O)c2csc(-c3cnn(C(=O)OC4(C)CC4)c3)n2)c(-c2ccccn2)n1 [II-5, 1-methylcyclopropyl 4-(4-((1-methyl-3-(pyridin-2-yl)-1H-pyrazol-4-yl)carbamoyl)thiazol-2-yl)-1H-pyrazole-1-carboxylate]	
0.113	0.0771	Cn1cc(NC(=O)c2csc(-c3cn[nH]c3)n2)c(-c2ccccn2)n1 [II-26, N-(1-methyl-3-(pyridin-2-yl)-1H-pyrazol-4-yl)-2-(1H-pyrazol-4-yl)thiazole-4-carboxamide]	
0.063	0.276	COCCn1cc(NC(=O)c2csc(-c3cn[nH]c3)n2)c(-c2ccccn2)n1 [II-28, N-(1-(2-methoxyethyl)-3-(pyridin-2-yl)-1H-pyrazol-4-yl)-2-(1H-pyrazol-4-yl)thiazole-4-carboxamide]	
0.0623	0.05	CCO[C@H]1C[C@@H](n2cc(NC(=O)c3csc(-c4cn[nH]c4)n3)c(-c3ccccn3)n2)C1 [II-11, N-(1-((1,3-cis)-3-ethoxycyclobutyl)-3-(pyridin-2-yl)-1H-pyrazol-4-yl)-2-(1H-pyrazol-4-yl)thiazole-4-carboxamide]	
0.0616	0.135	CCO[C@H]1C[C@H](n2cc(NC(=O)c3csc(-c4cn[nH]c4)n3)c(-c3ccccn3)n2)C1 [II-12, N-(1-((1,3-trans)-3-ethoxycyclobutyl)-3-(pyridin-2-yl)-1H-pyrazol-4-yl)-2-(1H-pyrazol-4-yl)thiazole-4-carboxamide]	
0.0557	0.0861	O=C(Nc1cn(C2COC2)nc1-c1ccccn1)c1csc(-c2cn[nH]c2)n1 [II-34, N-(1-(oxetan-3-yl)-3-(pyridin-2-yl)-1H-pyrazol-4-yl)-2-(1H-pyrazol-4-yl)thiazole-4-carboxamide]	
0.0105	0.0226	O=C(Nc1cn(C2CCOCC2)nc1-c1ccccn1)c1csc(-c2cn[nH]c2)n1 [II-10, 2-(1H-pyrazol-4-yl)-N-(3-(pyridin-2-yl)-1-(tetrahydro-2H-pyran-4-yl)-1H-pyrazol-4-yl)thiazole-4-carboxamide]	
0.0096	0.0064	CN(C)[C@H]1C[C@@H](n2cc(NC(=O)c3csc(-c4cn[nH]c4)n3)c(-c3ccccn3)n2)C1 [II-15, N-(1-((1s,3s)-3-(dimethylamino)cyclobutyl)-3-(pyridin-2-yl)-1H-pyrazol-4-yl)-2-(1H-pyrazol-4-yl)thiazole-4-carboxamide]	
0.0057	0.0434	O=C(Nc1cn([C@H]2C[C@@H](O)C2)nc1-c1ccccn1)c1csc(-c2cn[nH]c2)n1 [II-14, N-(1-((1,3-cis)-3-hydroxycyclobutyl)-3-(pyridin-2-yl)-1H-pyrazol-4-yl)-2-(1H-pyrazol-4-yl)thiazole-4-carboxamide]	
